“And” between values parts separate entries of the source, which are not always exact repeats. Identical values can stand only once.
How the values were obtained:
[1] = test system: generation of hydrogen peroxide (H2O2) by iron; experiment: H2O2 Inhibition Assay; format: biochemical
Method: Assay 1. H2O2 Inhibition Assay.
(§1) This fluoresence assay evaluates the ability of a test compound to inhibit the generation of hydrogen peroxide (H2O2) by iron in the presence of a reducing substrate such as ascorbic acid. In the assay, iron in the form of FeCl3 or copper is allowed to react with ascorbic acid by incubating for 1 hr at 37° C. in the presence of the fluorescing compound DCF and horseradish peroxidase. H2O2 generated by the system is assessed by measuring the specific fluorescence profile at the excitation and emission wavelengths of 485 and 530 nm respectively, in the presence of increasing concentrations of test compound. Test compounds are ranked according to their capacity to inhibit H2O2 generated by the system where lower values reflect greater ability to inhibit H2O2 production.

[2] = test system: M17 human neuroblastoma cells; experiment: Metal Uptake Assay (metal transport); format: cell-based; details: 10 μM Cu + 10 μM compound, 5 hours
Method: Assay 3. Metal Uptake Assay
M17 human neuroblastoma cells are plated out on 6 well plates and left overnight. Enough cells are added to give approximately 70% confluent the following day of the experiment. Test compounds are added to media and mixed with equi-molar amounts of CuCl2 solution. A=10 μM Cu+10 μM MPAC; B=10 μM Cu+10 μM MPAC.
Cells are incubated in 1 ml of media/MPAC/Cu mix for 5 hours at 37° C. At the end of the incubation the media is removed with a vacuum aspirator and 1 ml of PBS added to dislodge the cells. Cells are then put into Eppendorf tubes and pelleted. The PBS is removed and the remaining cell pellets are frozen at −20 C.
The cell pellets are prepared as follows:
Received cell pellets of similar levels in 1.5 ml microfuge tubes. Added 50 μl of concentrated Nitric Acid (Aristar, BDH) to each cell pellet and allowed them to digest over night. Heated the samples for 20 min at 90° C. to complete the digestion. The volume of each sample was reduced to ˜45 ul after digestion. Added 1 ml of the 1% Nitric Acid diluent to each sample. (referred to as the “preparation solution” samples).
Measurements were made using a Varian UltraMass ICPMS instrument under operating conditions suitable for routine multi-element analysis.
The instrument was calibrated using Blank, 10, 50 and 100 ppb of a certified multi-element ICPMS standard solution (ICP-MS—CAI2-1, Accustandard) for Fe, Cu and Zn in 1% nitric acid. Used an certified internal standard solution containing 100 ppb Yttrium (Y 89) as an internal control (ICP-MS—IS-MIX1-1, Accustandard).

Fe-DA = experiment: H2O2 assay, Fe-DA (% cf. Fe 0.4 μM/DA 50 μM); format: biochemical; details: Fe 0.4 μM/DA 50 μM
Method: as §1

Neuronal cortical cells = experiment: Cytotox (% viable); Primary Neuronal Cells Neurotoxicity Assay; format: cell-based, mouse; details: cell type not given, repeat values given
Method: Assay 2 (a). Primary Neuronal Cells Neurotoxicity Assays
Cortical cultures were prepared as previously described (White et al., 1998). Embryonic day 14 BL6Jx129sv mouse cortices were removed, dissected free of meninges and dissociated in 0.025% (wt/vol) trypsin. Dissociated cells were plated in 48 well culture plates at a density of 2×10^6 cells/mL in MEM with 25% (vol/vol) FCS and 5% (vol/vol) HS and incubated at 37° C., 2 hrs. Media was then replaced with Neurobasal media (Invitrogen Life Technologies) and B27 supplements (Invitrogen Life Technologies). Cultures were maintained at 37° C. in 5% CO2. Prior to experimentation, the culture medium was replaced with Neurobasal media and B27 minus antioxidants (Invitrogen Life Technologies).
Neuronal cortical cells were cultured for five days as per Assay 2 in NB media and B27 supplement.
On day six the test compounds were added to the neuronal cell cultures in NB media and B27 supplement minus antioxidants.
Test compounds were dissolved in 100% DMSO to a concentration of 2.5 mM (10 mM if excess compound was weighed out per vial—then diluted to 2.5 mM). 2.5 mM stock solution was serially diluted 1 in 10 to give working solutions of 250 uM, 25 uM, 2.5 uM. Test compounds were not added directly to cells, instead they were added to a 48 well ‘Drug Plate’ as comprised below: • Preparation of “Drug Plate”:
Well 1: 576 ul NB+B27 (no antioxidant)*+24 ul 2.5 uM test compound
Well 2: 576 ul NB+B27 (no antioxidant)+24 μl 25 uM test compound
Well 3: 576 ul NB+B27 (no antioxidant)+24 ul 250 uM test compound
Well 4: 576 ul NB+B27 (no antioxidant)+24 ul 2.5 uM test compound
Well 5: 576 ul NB+B27 (no antioxidant)+24 ul 25 uM test compound
Well 6: 576 ul NB+B27 (no antioxidant)+24 ul 250 uM test compound
Well 7: 576 ul NB+B27 (no antioxidant)+24 ul test compound diluent**
Well 8: 600 ul NB+B27 (no antioxidant)
The Drug Plate was incubated at 37° C. for 15 mins. 200 ul of each well was added in triplicate to the corresponding cell plate. The cell plate was incubated at 37° C., for 4 days, (2 compounds are tested on each plate of cells).
*NB media and B27 (no antioxidants),
**PBT diluent 10% DMSO in NB+1327 (no antioxidants)
On completion of the assay, 1/10 volume MTS was added per well of plate (ie 25 ul/250 ul). The plates were incubated at 37° C. for 2 hrs, and then absorbance was read at 560 nm.

Row | SMILES | IC50 [1] | Metal transport [2] | Fe-DA % cf. Fe 0.4 μM/DA 50 μM (Fe-DA) | Cytotox (% viable at 1 uM) (Neuronal cortical cells) | Cytotox (% viable at 10 uM) (Neuronal cortical cells)
1 | C#CCN(C)Cc1nc2c(O)c(Cl)cc(Cl)c2c(=O)n1CC [Compound F4392] | 570 nM | Metal transport 161% | 72% |  | 
2 | Cn1c(CN2CCCCC2)nc2c(O)c(Cl)cc(Cl)c2c1=O [Compound F4475] | 500 nM | Metal transport 8% | 80% |  | 
3 | CCCNCc1nc2c(O)c(Cl)cc(Cl)c2c(=O)n1C [Compound F4477] | 220 nM | Metal transport 16% | 65% |  | 
4 | CN(Cc1ccc(F)cc1)Cc1nc2c(O)c(Cl)cc(Cl)c2c(=O)n1CC1CC1 [Compound F4480] | 470 nM | Metal transport 138% | 46% | 91.6% and 106.7% | 30.3% and 33.3%
5 | CCn1c(CN(C)Cc2ccc(F)cc2)nc2c(O)c(Cl)cc(Cl)c2c1=O [Compound F4487] | 760 nM | Metal transport 133% | 53% |  | 
6 | CCCn1c(CN2CCCCC2)nc2c(O)c(Cl)cc(Cl)c2c1=O [Compound F4492] | 1140 nM | Metal transport 18% | 55% |  | 
7 | O=c1c2c(Cl)cc(Cl)c(O)c2nc(CN2CCCC2)n1CC1CC1 [Compound F4499] | 1890 nM | Metal transport 15% | 55% | 99.1% and 76.5% | 68.6% and 78.1%
8 | CCCn1c(CN(C)C)nc2c(O)c(Cl)cc(Cl)c2c1=O [Compound F4530] | 290 nM | Metal transport 24% | 57% | 105.0% and 96.2% | 57.6% and 41.4%
9 | CCCN(CCC)Cc1nc2c(O)c(Cl)cc(Cl)c2c(=O)n1CC1CC1 [Compound F4535] | 880 nM | Metal transport 25% | 62% | 87.0% and 103.0% | 63.6% and 59.8%
10 | CN(Cc1nc2c(O)c(Cl)cc(Cl)c2c(=O)n1CC1CC1)C1CCCCC1 [Compound F4536] | 1000 nM | Metal transport 24% | 81% | 92.7% and 105.1% and 109.8% | 
11 | CCCn1c(CNCC)nc2c(O)c(Cl)cc(Cl)c2c1=O [Compound F4540] | > 10000 nM | Metal transport 14% | 122% | 100.4% and 111.5% | 83.4% and 96.5%
12 | CCCn1c(CN(CC)CC)nc2c(O)c(Cl)cc(Cl)c2c1=O [Compound F4541] | 740 nM | Metal transport 13% | 107% | 97.3% and 96.4% | 76.6% and 90.8%
13 | CCCNCc1nc2c(O)c(Cl)cc(Cl)c2c(=O)n1CCC [Compound F4542] | 360 nM | Metal transport 30% | 47% | 105.8% and 102.9% and 94.3% | 
14 | CCCN(CCC)Cc1nc2c(O)c(Cl)cc(Cl)c2c(=O)n1CCC [Compound F4543] | 500 nM | Metal transport 62% | 71% | 92.0% and 107.4% | 52.6% and 61.5%
15 | CNCc1nc2c(O)c(Cl)cc(Cl)c2c(=O)n1CC(C)C [Compound F4544] | 830 nM | Metal transport 19% | 164% | 84.0% and 86.9% | 29.7% and 26.7%
16 | CCNCc1nc2c(O)c(Cl)cc(Cl)c2c(=O)n1CC(C)C [Compound F4545] | 430 nM | Metal transport 40% | 148% | 86.4% and 85.0% | 36.2% and 28.0%
17 | CCN(CC)Cc1nc2c(O)c(Cl)cc(Cl)c2c(=O)n1CC(C)C [Compound F4546] | 460 nM | Metal transport 21% | 66% | 95.6% and 92.2% and 103.3% | 63.7% and 86.5% and 100.3%
18 | CCCNCc1nc2c(O)c(Cl)cc(Cl)c2c(=O)n1CC(C)C [Compound F4547] | 500 nM | Metal transport 54% | 34% | 75.0% and 83.9% | 25.2% and 26.0%
19 | CCCN(CCC)Cc1nc2c(O)c(Cl)cc(Cl)c2c(=O)n1CC(C)C [Compound F4548] | 380 nM | Metal transport 38% | 40% | 96.5% and 96.0% | 55.9% and 46.0%
20 | CCCNCc1nc2c(O)c(Cl)cc(Cl)c2c(=O)n1CC [Compound F4549] | 300 nM | Metal transport 22% | 40% | 98.5% and 99.7% | 44.6% and 52.1%
21 | CCCN(CCC)Cc1nc2c(O)c(Cl)cc(Cl)c2c(=O)n1CC [Compound F4550] | 750 nM | Metal transport 35% | 128% | 88.7% and 94.7% | 71.7% and 83.5%
22 | CCCN(CCC)Cc1nc2c(O)c(Cl)cc(Cl)c2c(=O)n1C [Compound F4551] | 450 nM | Metal transport 30% | 56% | 89.7% and 96.9% | 50.7% and 62.5%
23 | CCCCN(C)Cc1nc2c(O)c(Cl)cc(Cl)c2c(=O)n1C [Compound F4552] | 630 nM | Metal transport 94% | 59% | 97.8% and 99.0% | 58.7% and 62.8%
24 | CCN(C)Cc1nc2c(O)c(Cl)cc(Cl)c2c(=O)n1CC1CC1 [Compound F4581] | 500 nM |  |  |  | 
25 | CCN(C)Cc1nc2c(O)c(Cl)cc(Cl)c2c(=O)n1C [Compound F4582] | 550 nM |  |  |  | 

Reference: US9145375B2, “Quinazolinone compounds” (PRANA BIOTECHNOLOGY LIMITED, priority 2008, dated 2015)
